One assay has as its system tps1Δ cells. The assay can be described thus: Growth rescue of tps1Δ strain on glucose (growth curves, 2% galactose medium). Conditions: 100 μM compound, 2.5 mM glucose. In kind it is cell-based, S. cerevisiae. The procedure:
Growth curves were made by measuring OD595 in a 96-well plate using the Multiskan™ FC Microplate Photometer (Thermo Fisher Scientific). Typically, for tps1Δ rescue experiments (FIG. 2b-e; FIG. 4a), cells were (pre)grown in Complete Synthetic medium containing 2% galactose.
Compounds were always added 10 min prior to glucose addition to ensure maximal interaction between the cells and compounds. Cells originating from the preculture were harvested, washed in medium without sugar, after which they were resuspended to an OD of 0.1 in 200 μL of the appropriate medium. At least three technical replicates were included per condition. OD595 was measured at 30° C. every 30 min with a 10-min shaking interval.

The test system of assay [1] is A549 lung adenocarcinoma cells. The assay can be described thus: A549 cell proliferation / growth inhibition. As to conditions: for Selected from primary screen for growth inhibition of A549 cells at 50 μM: 50 μM compound, 1 mM glucose; for Selected for having an IC50 ratio (10 mM glucose: 1 mM glucose) of A549 growth higher than WBC-A: IC50 on 10 mM vs 1 mM glucose, compared with WBC-A. In kind it is cell-based, human. On the procedure:
The analog library (n=203) was screened for inhibition of growth of A549 cells on RPMI medium supplemented with 1 mM glucose. DMSO (green bar) and WBC-A (orange bar) served as negative and positive control, respectively. In addition, the reference glucose transport inhibitors STF-31, Fasentin, BAY-876, WZB-117 and Cytochalasin B were included and indicated in red. Compounds were added at 50 μM concentration. Number of cells was determined by counting nuclei stained by Hoechst after three days of growth.
For both adherent A549 and MCF10Δ H-RAS^V12 cell lines, growth curves were established using the IncuCyte® ZOOM technology. By collecting phase contrast images, the IncuCyte® software provides a calculated confluency percentage from which growth curves can be deducted.
Cells were seeded at a density of 1000-1500 cells/well in a Nunc-Edge™ 96-well plate (Thermo Fisher Scientific) and growth was typically measured over 3 to 5 days. For the measurement of apoptosis induction using the MCF10Δ H-RAS^V12 cell line, the IncuCyte® Caspase-3/7 green dye was added to the medium in the recommended concentration at the beginning of the growth curve experiment. Apoptosis was detected by taking fluorescent images by excitation at 488 nm followed by IncuCyte® software analysis. Cell growth of the KMS-12-PE multiple myeloma cell line, which grows in suspension, was measured by manual cell counting. Cells were initially seeded at a density of 10^4 cells/well and incubated for 4 days after which the cell number was counted. For all cell lines, the same medium used for pregrowth was also used for the growth curve experiment, albeit with different glucose concentrations depending on the experimental design. With compound administration, the final concentration of DMSO never exceeded 0.1%. Typically, at least four technical repeats were included per condition.

On to `CCOC(=O)CSc1nnc(C)c2cnn(-c3ccccc3)c12` [74C], for which the “Rescue of the tps1Δ strain on 2.5 mM glucose at 100 μM” value (“Rescue of the tps1Δ strain” for short) in the assay with tps1Δ cells is “No”. Further, the “Selected from primary screen for growth inhibition of A549 cells at 50 μM” value in assay [1] is “No”.
Regarding `Cc1nc(SCC(=O)N2CCC(C)Sc3ccccc32)c2c(-c3cccs3)csc2n1` (stereo not drawn) [43B], in the assay with tps1Δ cells, the “Rescue of the tps1Δ strain” value is recorded as “No”. The “Selected from primary screen for growth inhibition of A549 cells at 50 μM” value in assay [1] is “No”.
In the case of `COc1cccc(NC(=O)CSc2nc(C)nc3scc(-c4cccs4)c23)c1` [45B], in the assay on tps1Δ cells, the “Rescue of the tps1Δ strain” value is given as “No”. In addition, in assay [1], the “Selected from primary screen for growth inhibition of A549 cells at 50 μM” value was “Yes” and the “Selected for having an IC50 ratio (10 mM glucose: 1 mM glucose) of A549 growth higher than WBC-A” value (shortened to “Selected for having an IC50 ratio”) was “Higher IC50 ratio, but false-positive”.
With `Cc1ccc(-c2csc3ncnc(SCC(=O)NCc4ccco4)c23)cc1` [8B], the “Rescue of the tps1Δ strain” value in the assay on tps1Δ cells is “No”. In assay [1], the “Selected from primary screen for growth inhibition of A549 cells at 50 μM” value is reported as “Yes” and the “Selected for having an IC50 ratio” value is reported as “Lower IC50 ratio”.
For `CCCN(CC(=O)N(C)C)c1nc(C)nc2scc(-c3cccs3)c12` [46B], in that order: “No”, “Yes” and “Lower IC50 ratio”.
Regarding `COc1ccc(-c2csc3ncnc(Sc4nnc(-c5cccc(C)c5)n4CC(N)=O)c23)cc1` [21A], the “Rescue of the tps1Δ strain” value in the assay on tps1Δ cells was “No”. Moreover, in assay [1], the “Selected from primary screen for growth inhibition of A549 cells at 50 μM” value is given as “Yes” and the “Selected for having an IC50 ratio” value is “Lower IC50 ratio”.
`Cc1nc(SCCO)c2c3c(sc2n1)CCC3` [24C]: the “Rescue of the tps1Δ strain” value in the assay on tps1Δ cells was “No”. For the same compound, the “Selected from primary screen for growth inhibition of A549 cells at 50 μM” value in assay [1] was “No”.
With `CCc1nc(SCC(=O)OC)c2ccsc2n1` [42C], the “Rescue of the tps1Δ strain” value in the assay with tps1Δ cells was “No”. Also, in assay [1], the “Selected from primary screen for growth inhibition of A549 cells at 50 μM” value is reported as “No” and the “Selected for having an IC50 ratio” value is listed as “Lower IC50 ratio”.
For the compound `Cc1sc2ncnc(Sc3nnc(Cc4cccs4)n3C)c2c1C` [12A], in the assay with tps1Δ cells, the “Rescue of the tps1Δ strain” value is given as “No”. Further, the “Selected from primary screen for growth inhibition of A549 cells at 50 μM” value in assay [1] is “No”.
`c1ccc(Cn2c(CN3CCCC3)nnc2Sc2ncnc3scc(-c4ccccc4)c23)cc1` [27A]: the “Rescue of the tps1Δ strain” value with tps1Δ cells is listed as “No”. Further, in assay [1], the “Selected from primary screen for growth inhibition of A549 cells at 50 μM” value is listed as “Yes” and the “Selected for having an IC50 ratio” value is reported as “Lower IC50 ratio”.
As to `Cc1nc(Sc2nnc3sc4ccccc4n23)c2c3c(sc2n1)CCCC3` [51C], the “Rescue of the tps1Δ strain” value with tps1Δ cells was “No”. Further, the “Selected from primary screen for growth inhibition of A549 cells at 50 μM” value in assay [1] is given as “No”.
Regarding `COc1ccccc1NC(=O)CSc1ncnc2scc(-c3ccccc3)c12` [11B], the “Rescue of the tps1Δ strain” value in the assay with tps1Δ cells is reported as “No”. Besides, the “Selected from primary screen for growth inhibition of A549 cells at 50 μM” value in assay [1] is reported as “No”.
Turning to `Cc1nc(SCCN2CCOC2=O)c2c(-c3cccs3)csc2n1` [26C], the “Rescue of the tps1Δ strain” value in the assay with tps1Δ cells is listed as “Yes”. Also, in assay [1], the “Selected from primary screen for growth inhibition of A549 cells at 50 μM” value is on record as “No”.
For the compound `Cc1nc(Sc2nnc(C3CC3)n2C2CC2)c2c(-c3cccs3)csc2n1` [58C], the “Rescue of the tps1Δ strain” value in the assay on tps1Δ cells is reported as “No”. Also, the “Selected from primary screen for growth inhibition of A549 cells at 50 μM” value in assay [1] is “No”.
As to `CC(Sc1nnc2n1CCCCC2)c1nc2scc(-c3cccs3)c2c(=O)[nH]1` (stereo not drawn) [6A], in the assay on tps1Δ cells, the “Rescue of the tps1Δ strain” value is “No”. For the same compound, the “Selected from primary screen for growth inhibition of A549 cells at 50 μM” value in assay [1] is listed as “No”.
`CCn1c(Sc2nc(C)nc3scc(-c4cccs4)c23)nnc1-c1ccncc1` [43C]: in the assay with tps1Δ cells, the “Rescue of the tps1Δ strain” value is on record as “Yes”. Further, the “Selected from primary screen for growth inhibition of A549 cells at 50 μM” value in assay [1] is on record as “Yes”.
On to `CC(=O)N(c1nnc(Sc2nc(C)nc3scc(-c4cccs4)c23)s1)C1CC1` [39C], for which the “Rescue of the tps1Δ strain” value in the assay with tps1Δ cells is listed as “No”. Further, the “Selected from primary screen for growth inhibition of A549 cells at 50 μM” value in assay [1] is recorded as “No”.
As for `Cc1nc(SCCN2CCCS2(=O)=O)c2c(C)c(C)sc2n1` [83C], the “Rescue of the tps1Δ strain” value with tps1Δ cells is reported as “No”. Moreover, the “Selected from primary screen for growth inhibition of A549 cells at 50 μM” value in assay [1] is given as “No”.
As for `Cc1nc2scc(-c3cccs3)c2c(=O)[nH]1` [48C], the “Rescue of the tps1Δ strain” value in the assay with tps1Δ cells is “No”. In assay [1], the “Selected from primary screen for growth inhibition of A549 cells at 50 μM” value is “No”.
Regarding `Cc1sc2nc(CN3CCOCC3)nc(Sc3nnc4n3CCCCC4)c2c1C` [28A], the “Rescue of the tps1Δ strain” value with tps1Δ cells is listed as “No”. For the same compound, in assay [1], the “Selected from primary screen for growth inhibition of A549 cells at 50 μM” value is recorded as “No”.
Turning to `Cc1nc(SCC(=O)N2CCOCC2)c2c3c(sc2n1)CCC3` [65C], the “Rescue of the tps1Δ strain” value with tps1Δ cells is recorded as “No”. In assay [1], the “Selected from primary screen for growth inhibition of A549 cells at 50 μM” value is on record as “No”.
For the compound `CCn1c(CCC(N)=O)nnc1Sc1nc(C)nc2scc(-c3cccs3)c12` [16C], the “Rescue of the tps1Δ strain” value in the assay on tps1Δ cells was “Yes”. Besides, in assay [1], the “Selected from primary screen for growth inhibition of A549 cells at 50 μM” value was “Yes” and the “Selected for having an IC50 ratio” value was “Lower IC50 ratio”.
In the case of `Cc1sc2nc(-c3cccs3)nc(Sc3nnc(C)n3C)c2c1C` [16A], in the assay with tps1Δ cells, the “Rescue of the tps1Δ strain” value was “No”. In addition, the “Selected from primary screen for growth inhibition of A549 cells at 50 μM” value in assay [1] is given as “No”.
For `Cc1nc(N(C)CC(N)=O)c2c(-c3cccs3)csc2n1` [39B], the “Rescue of the tps1Δ strain” value in the assay with tps1Δ cells was “No”. Further, the “Selected from primary screen for growth inhibition of A549 cells at 50 μM” value in assay [1] was “No”.
`Cc1nc(SCC(=O)N2CCOCC2)c2cc(-c3ccccc3)sc2n1` [28C]: the “Rescue of the tps1Δ strain” value in the assay with tps1Δ cells is recorded as “No”. Further, in assay [1], the “Selected from primary screen for growth inhibition of A549 cells at 50 μM” value is on record as “No”.
For the compound `Cc1nc(SCC(=O)N2CCOCC2)c2c3c(sc2n1)CCCC3` [52C], the “Rescue of the tps1Δ strain” value in the assay on tps1Δ cells is listed as “No”. Also, the “Selected from primary screen for growth inhibition of A549 cells at 50 μM” value in assay [1] is “No”.
Turning to `c1csc(-c2csc3nc(CN4CCOCC4)nc(Sc4ccncc4)c23)c1` [40C], in the assay with tps1Δ cells, the “Rescue of the tps1Δ strain” value was “No”. In addition, in assay [1], the “Selected from primary screen for growth inhibition of A549 cells at 50 μM” value is reported as “Yes” and the “Selected for having an IC50 ratio” value is “Lower IC50 ratio”.
Consider `Cc1nc(SCCOc2ccc(F)cc2)c2c(-c3cccs3)csc2n1` [32C], for which the “Rescue of the tps1Δ strain” value in the assay with tps1Δ cells was “No”. In assay [1], the “Selected from primary screen for growth inhibition of A549 cells at 50 μM” value is “No”.
Regarding `Cc1ccc(-c2csc3ncnc(SCC(=O)N(C)Cc4ccc(C)o4)c23)cc1` [2B], the “Rescue of the tps1Δ strain” value in the assay on tps1Δ cells is given as “No”. In assay [1], the “Selected from primary screen for growth inhibition of A549 cells at 50 μM” value is given as “Yes” and the “Selected for having an IC50 ratio” value was “Lower IC50 ratio”.
With `Cc1sc2ncnc(Sc3nnc4n3CCCCC4)c2c1C` [64A], the “Rescue of the tps1Δ strain” value in the assay on tps1Δ cells is “No”. Also, the “Selected from primary screen for growth inhibition of A549 cells at 50 μM” value in assay [1] was “No”.
In the case of `Cc1nc(Sc2nnc(NC3CC3)s2)c2c(-c3cccs3)csc2n1` [66C], the “Rescue of the tps1Δ strain” value in the assay on tps1Δ cells is reported as “No”. For the same compound, the “Selected from primary screen for growth inhibition of A549 cells at 50 μM” value in assay [1] is listed as “No”.
Regarding `Cc1nc(Sc2nnc(-c3cccnc3)n2C2CC2)c2c(-c3cccs3)csc2n1` [24A], the “Rescue of the tps1Δ strain” value in the assay with tps1Δ cells is “No”. For the same compound, in assay [1], the “Selected from primary screen for growth inhibition of A549 cells at 50 μM” value is “Yes” and the “Selected for having an IC50 ratio” value was “Lower IC50 ratio”.
In the case of `Cc1nc(NCC(=O)Nc2c(C)cccc2C)c2c(-c3cccs3)csc2n1` [29C], in the assay on tps1Δ cells, the “Rescue of the tps1Δ strain” value was “No”. In addition, the “Selected from primary screen for growth inhibition of A549 cells at 50 μM” value in assay [1] was “No”.
As to `Cc1nc(SCCO)c2c(C)c(C)sc2n1` [57C], the “Rescue of the tps1Δ strain” value in the assay with tps1Δ cells is listed as “No”. In addition, the “Selected from primary screen for growth inhibition of A549 cells at 50 μM” value in assay [1] is listed as “No”.
Regarding `Cc1nc(SCC(=O)Nc2cc(C)on2)c2c(-c3cccs3)csc2n1` [10C], the “Rescue of the tps1Δ strain” value in the assay on tps1Δ cells was “Yes”. Also, in assay [1], the “Selected from primary screen for growth inhibition of A549 cells at 50 μM” value is “Yes” and the “Selected for having an IC50 ratio” value was “Lower IC50 ratio”.
`Cc1nc(NC2CCN(CC(N)=O)CC2)c2c(-c3cccs3)csc2n1` [48B]: the “Rescue of the tps1Δ strain” value in the assay with tps1Δ cells is “No”. Besides, in assay [1], the “Selected from primary screen for growth inhibition of A549 cells at 50 μM” value is “Yes” and the “Selected for having an IC50 ratio” value was “Lower IC50 ratio”.
For `Cc1nc(SCCN2CCOCC2)c2c(-c3cccs3)csc2n1` [44A], in that order: “Yes”, “Yes” and “Lower IC50 ratio”.

Values taken from patent publication US20240252508A1, “Novel glucose uptake inhibitors for use in the treatment of cancer” (NOVELYEAST BV, priority 2021, published 2024).
